Among the test systems are DU-145 prostate; HCT-15 colon; MOLT-4 leukemia; NCI-H23 lung; PC-3 prostate; RXF 393 renal; SK-MEL-28 melanoma; SR leukemia; T-47D breast; UACC-62 melanoma.
Common to all, as to assay: NCI tumour cell line growth inhibition, 48 h

TGI and GI50 data for eight molecules are collected here from PubChem BioAssay (NCI).

Molecules are shown by their SMILES. Where “and” joins values, the source holds several entries; their conditions need not be identical. Equal entries are not always repeated.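 Exposure lasted 48 hours, with cells grown in 96-well plates and compounds tested at five concentrations. At the GI50, growth is halved. The concentration for full growth arrest is given as TGI.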

Consider `Oc1[nH]c2ccccc2c1N=Nc1ccccn1`, for which the TGI with DU-145 prostate, with HCT-15 colon, in the assay on MOLT-4 leukemia, in the assay with NCI-H23 lung, in the assay on PC-3 prostate and in the assay on RXF 393 renal was more than 100 µM each time. Moreover, the TGI is more than 100 µM in the assay on SK-MEL-28 melanoma, 47.6 µM with SR leukemia, more than 100 µM in the assay with T-47D breast and more than 100 µM in the assay on UACC-62 melanoma.

As for `COC(=O)CCc1c[nH]c2ccc(N(CCCl)CCCl)cc12`, the GI50 with DU-145 prostate was 2.27 µM; in the assay on HCT-15 colon, 3.16 µM; in the assay on MOLT-4 leukemia, 0.826 µM; in the assay on NCI-H23 lung it was 1.25 µM; in the assay with PC-3 prostate it was 8.65 µM; in the assay on RXF 393 renal it was 1.64 µM. For the same molecule, the GI50 in the assay with SK-MEL-28 melanoma is 10.5 µM; in the assay on SR leukemia, 0.416 µM; with T-47D breast, 1.16 µM; with UACC-62 melanoma, 1.72 µM. Further, the TGI in the assay on DU-145 prostate was more than 100 µM; in the assay on HCT-15 colon it was more than 59.3 µM; with MOLT-4 leukemia, more than 100 µM; in the assay on NCI-H23 lung, 39.7 µM; in the assay with PC-3 prostate, more than 73.4 µM; in the assay on RXF 393 renal it was 4.19 µM. Moreover, the TGI was 33.6 µM in the assay on SK-MEL-28 melanoma, more than 100 µM with SR leukemia, 16.4 µM in the assay with T-47D breast and 16.6 µM in the assay with UACC-62 melanoma.

Take `COc1ccc2c(C)cc(N/N=C/c3ccc(OC)c4ccccc34)nc2c1`: the TGI in the assay on DU-145 prostate came out at 16.4 µM; in the assay with HCT-15 colon, 23.4 µM; with MOLT-4 leukemia, 52.9 µM; in the assay on NCI-H23 lung, 32.8 µM; in the assay with PC-3 prostate, 34.1 µM; in the assay with RXF 393 renal, 39.8 µM. Besides, the TGI with SK-MEL-28 melanoma came out at 31.6 µM; with SR leukemia, 22.3 µM; in the assay on T-47D breast, 24.1 µM; with UACC-62 melanoma, 28.3 µM.

For the molecule `C=C1C(=O)O[C@H]2C[C@@H]1CC/C(C)=C/CC/C(C)=C/CC[C@H]2C`, the GI50 in the assay with DU-145 prostate was 18 µM; in the assay with HCT-15 colon, 15.7 µM; in the assay on MOLT-4 leukemia, 10.6 µM; in the assay with NCI-H23 lung, 20.6 µM; in the assay on PC-3 prostate, 8.54 µM; with RXF 393 renal, 9.67 µM. Further, the GI50 with SK-MEL-28 melanoma is 21.4 µM; with SR leukemia it was 7.14 µM; with T-47D breast it was 25 µM; in the assay with UACC-62 melanoma, 19.3 µM. Further, the TGI was 33.5 µM in the assay on DU-145 prostate; 32.9 µM with HCT-15 colon; more than 24.6 µM in the assay with MOLT-4 leukemia; 41 µM with NCI-H23 lung; 20.9 µM with PC-3 prostate; 27.7 µM in the assay on RXF 393 renal. Further, the TGI came out at 42.9 µM with SK-MEL-28 melanoma, 15.2 µM in the assay with SR leukemia, 51.6 µM with T-47D breast and 34.6 µM in the assay with UACC-62 melanoma.

Turning to `CCN(Cc1cccc(F)c1)c1ccc(CO)c(Cl)c1`, the GI50 with DU-145 prostate was 26.9 µM; in the assay with HCT-15 colon, 14.5 µM; in the assay with MOLT-4 leukemia, 25.2 µM; with NCI-H23 lung, 10.8 µM; in the assay on PC-3 prostate, 21.8 µM; with RXF 393 renal, 5.28 µM. The GI50 with SK-MEL-28 melanoma is 16.2 µM; with SR leukemia, 27.3 µM; with T-47D breast it was 0.148 µM; in the assay on UACC-62 melanoma, 0.0741 µM. Moreover, the TGI in the assay on DU-145 prostate is more than 100 µM; in the assay with HCT-15 colon, more than 100 µM; in the assay with MOLT-4 leukemia, more than 74.5 µM; in the assay on NCI-H23 lung it was 74.4 µM; in the assay with PC-3 prostate, more than 82.5 µM; in the assay on RXF 393 renal, 27.8 µM. The TGI in the assay on SK-MEL-28 melanoma is 45.5 µM; in the assay on SR leukemia, more than 70.3 µM; in the assay on T-47D breast it was 0.662 µM; with UACC-62 melanoma it was 0.649 µM.

With `O=C(CP(=O)(O)O)NC(CC(=O)OCc1ccccc1)C(=O)OCc1ccccc1` (configuration not stated), the TGI in the assay with DU-145 prostate, in the assay with HCT-15 colon, with MOLT-4 leukemia, in the assay with NCI-H23 lung, in the assay on PC-3 prostate and with RXF 393 renal was more than 100 µM each time. Further, the TGI with SK-MEL-28 melanoma, in the assay with SR leukemia, in the assay on T-47D breast and in the assay with UACC-62 melanoma was more than 100 µM each time.

Turning to `CC(=O)OCC1OC(n2c(-c3ccc(Cl)cc3)ccc(C#N)c2=S)C(OC(C)=O)C(OC(C)=O)C1OC(C)=O` (configuration not stated), the TGI with DU-145 prostate was more than 100 µM; in the assay with HCT-15 colon, more than 100 µM; in the assay with MOLT-4 leukemia it was more than 100 µM; in the assay on NCI-H23 lung it was more than 100 µM; in the assay on PC-3 prostate, more than 100 µM; in the assay with RXF 393 renal, 36.3 µM and 74.5 µM. The TGI with SK-MEL-28 melanoma, with SR leukemia, with T-47D breast and in the assay with UACC-62 melanoma was more than 100 µM each time. In addition, the GI50 with NCI-H23 lung is 29.3 µM and > 100 µM; in the assay with SR leukemia it was > 100 µM and 40.2 µM.

For `O=S(=O)(Nc1ccccc1Cl)c1ccc(-c2cnc(C3CC3)o2)cc1`, the GI50 in the assay on DU-145 prostate was 0.94 µM; with HCT-15 colon, 0.282 µM; with MOLT-4 leukemia, 0.71 µM; in the assay on NCI-H23 lung, 1.78 µM; in the assay on PC-3 prostate, 0.521 µM; with RXF 393 renal, 0.266 µM. The GI50 is 3.34 µM in the assay with SK-MEL-28 melanoma, 0.0684 µM in the assay on SR leukemia, 0.464 µM with T-47D breast and 0.402 µM with UACC-62 melanoma. In addition, the TGI in the assay on DU-145 prostate was more than 100 µM; with HCT-15 colon, more than 100 µM; with MOLT-4 leukemia, more than 63.6 µM; with NCI-H23 lung, more than 100 µM; with PC-3 prostate, more than 100 µM; in the assay with RXF 393 renal, 1.18 µM. Moreover, the TGI in the assay on SK-MEL-28 melanoma is more than 100 µM; in the assay with SR leukemia, more than 55.7 µM; in the assay on T-47D breast, more than 54.7 µM; with UACC-62 melanoma, 47.6 µM.
